Several values for one entry are separate records, joined by “and”; a condition that tells them apart may be missing. Equal entries are not always repeated. Where two headings read alike, the source gives them in different places.
Experiments:
DENV-2 RL strain = test: Delayed-treatment study (therapeutic setting); format: in vivo, AG129 mice; settings: for Viral Load Log10 / Viral Load Copies/ml: 30 mg/kg/day, individual mice; for Viral (load), log10 of the column before (head empty) / Viral (load; head cut off): JNJ-1802 30 mg/kg
DENV-2/16681 = test: NHP DENV-2 study, anti-DENV IgG ELISA; parameters: species or system rhesus macaques (M. mulatta); settings: rhesus monkey, in vivo
[1] = format: in vivo, rhesus macaques
Description: WRAIR is fully accredited by AAALAC International.

[2] = both, Indian-origin, rhesus monkey, in vivo, po
[3] = start treatment day 4 p.i., blood sampling day 6 p.i.
[4] = start treatment day 4 p.i., blood sampling day 7 p.i.
[5] = start treatment day 4 p.i., blood sampling day 8 p.i.
[6] = start treatment day 4 p.i., blood sampling day 9 p.i.
[7] = start treatment day 5 p.i., blood sampling day 3 p.i.
[8] = start treatment day 5 p.i., blood sampling day 4 p.i.
[9] = start treatment day 5 p.i., blood sampling day 5 p.i.
[10] = start treatment day 5 p.i., blood sampling day 6 p.i.
[11] = start treatment day 5 p.i., blood sampling day 7 p.i.
[12] = start treatment day 5 p.i., blood sampling day 8 p.i.
[13] = start treatment day 5 p.i., blood sampling day 9 p.i.
[14] = start treatment day 0 p.i., blood day 10, individual mice, 30 mg/kg
[15] = start treatment day 0 p.i., blood day 12, individual mice
[16] = start treatment day 0 p.i., blood day 14, individual mice, 30 mg/kg
[17] = start treatment day 4 p.i., blood day 10, individual mice, 30 mg/kg
[18] = start treatment day 4 p.i., blood day 12, individual mice
[19] = start treatment day 4 p.i., blood day 14, individual mice, 30 mg/kg
[20] = start treatment day 5 p.i., blood day 10, individual mice, 30 mg/kg
[21] = start treatment day 5 p.i., blood day 12, individual mice, 30 mg/kg
[22] = start treatment day 5 p.i., blood day 14, individual mice

Question: For `COc1cc(N[C@H](C(=O)c2c[nH]c3ccc(OC(F)(F)F)cc23)c2ccc(Cl)cc2OC)cc(S(C)(=O)=O)c1` [JNJ-1802], which “Viral Load Log10” value (DENV-2 RL strain; start treatment day 4 p.i., blood sampling day 5 p.i.) is on record?
Answer: 5.8093 Log10 and 5.2288 Log10 and 6.1145 Log10 and 5.9771 Log10 and 5.4737 Log10

Question: And the “Viral Load Copies/ml” value (DENV-2 RL strain; [3])?
Answer: 1.31E+03 Copies/ml and 2.07E+03 Copies/ml and 3.65E+04 Copies/ml and 6.54E+03 Copies/ml

Question: What about the “Viral Load Log10” value (DENV-2 RL strain; [3]) of the same compound?
Answer: 4.0690 Log10 and 3.1169 Log10 and 3.3153 Log10 and 4.5619 Log10 and 3.8159 Log10

Question: And the “Viral Load Copies/ml” value (DENV-2 RL strain; [4])?
Answer: 1.31E+03 Copies/ml and 2.07E+03 Copies/ml and 4.29E+06 Copies/ml and 6.54E+03 Copies/ml

Question: What about the “Viral Load Log10” value (DENV-2 RL strain; [4]) of the same compound?
Answer: 3.1169 Log10 and 3.3153 Log10 and 6.6320 Log10 and 3.8159 Log10

Question: What about the “Viral Load Copies/ml” value (DENV-2 RL strain; [5]) of the same compound?
Answer: 1.31E+03 Copies/ml and 1.87E+03 Copies/ml

Question: What about the “Viral Load Log10” value (DENV-2 RL strain; [5]) of the same compound?
Answer: 3.1169 Log10 and 3.2718 Log10

Question: What about the “Viral Load Copies/ml” value (DENV-2 RL strain; [6]) of the same compound?
Answer: 1.31E+03 Copies/ml

Question: And the “Viral Load Log10” value (DENV-2 RL strain; [6])?
Answer: 3.1169 Log10

Question: What about the “Viral Load Copies/ml” value (DENV-2 RL strain; [7]) of the same compound?
Answer: 1.69E+06 Copies/ml and 8.64E+05 Copies/ml

Question: And the “Viral Load Log10” value (DENV-2 RL strain; [7])?
Answer: 6.8381 Log10 and 6.2281 Log10 and 5.9363 Log10

Question: What about the “Viral Load Copies/ml” value (DENV-2 RL strain; [8]) of the same compound?
Answer: 1.81E+06 Copies/ml and 3.46E+06 Copies/ml and 7.59E+06 Copies/ml and 4.62E+06 Copies/ml

Question: What about the “Viral Load Log10” value (DENV-2 RL strain; [8]) of the same compound?
Answer: 6.2566 Log10 and 6.5396 Log10 and 6.8802 Log10 and 6.6643 Log10

Question: What about the “Viral Load Copies/ml” value (DENV-2 RL strain; [9]) of the same compound?
Answer: 3.99E+07 Copies/ml and 1.36E+07 Copies/ml and 2.74E+07 Copies/ml and 2.11E+07 Copies/ml and 1.62E+07 Copies/ml

Question: And the “Viral Load Log10” value (DENV-2 RL strain; [9])?
Answer: 7.5974 Log10 and 7.1163 Log10 and 7.4220 Log10 and 7.3194 Log10 and 7.2021 Log10

Question: And the “Viral Load Copies/ml” value (DENV-2 RL strain; [10])?
Answer: 1.03E+06 Copies/ml and 1.20E+06 Copies/ml and 1.55E+06 Copies/ml and 4.56E+05 Copies/ml

Question: And the “Viral Load Log10” value (DENV-2 RL strain; [10])?
Answer: 6.0131 Log10 and 6.0795 Log10 and 6.1913 Log10 and 5.6591 Log10

Question: And the “Viral Load Copies/ml” value (DENV-2 RL strain; [11])?
Answer: 3.15E+05 Copies/ml

Question: And the “Viral Load Log10” value (DENV-2 RL strain; [11])?
Answer: 5.4984 Log10 and 4.8630 Log10

Question: What about the “Viral Load Copies/ml” value (DENV-2 RL strain; [12]) of the same compound?
Answer: 1.31E+03 Copies/ml and 1.96E+03 Copies/ml and 5.65E+04 Copies/ml

Question: And the “Viral Load Log10” value (DENV-2 RL strain; [12])?
Answer: 3.1169 Log10 and 3.2930 Log10 and 4.7518 Log10

Question: What about the “Viral Load Copies/ml” value (DENV-2 RL strain; [13]) of the same compound?
Answer: 1.31E+03 Copies/ml and 1.37E+04 Copies/ml

Question: And the “Viral Load Log10” value (DENV-2 RL strain; [13])?
Answer: 3.1169 Log10 and 4.1354 Log10

Question: And the “time until viral loads below LLOQ” value (DENV-2 RL strain; 60 mg/kg/day b.i.d., start day 4)?
Answer: ≤ 48 h

Question: And the “Viral (load), log10 of the column before (head empty)” value (“Viral (load), log10” for short) (DENV-2 RL strain; [14])?
Answer: 3.1169 and 3.2930

Question: What about the “Viral (load; head cut off)” value (DENV-2 RL strain; [14]) of the same compound?
Answer: 1.31E+03 and 1.96E+03

Question: And the “Viral (load), log10” value (DENV-2 RL strain; [15])?
Answer: 3.1169

Question: What about the “Viral (load; head cut off)” value (DENV-2 RL strain; [15]) of the same compound?
Answer: 1.31E+03

Question: And the “Viral (load), log10” value (DENV-2 RL strain; [16])?
Answer: 3.1169 and 3.6909

Question: What about the “Viral (load; head cut off)” value (DENV-2 RL strain; [16]) of the same compound?
Answer: 1.31E+03 and 1.57E+03 and 4.91E+03

Question: And the “Viral (load), log10” value (DENV-2 RL strain; [17])?
Answer: 3.1468 and 3.2930 and 3.1169

Question: What about the “Viral (load; head cut off)” value (DENV-2 RL strain; [17]) of the same compound?
Answer: 1.40E+03 and 1.96E+03 and 1.64E+03 and 1.31E+03

Question: And the “Viral (load), log10” value (DENV-2 RL strain; [18])?
Answer: 3.1169

Question: And the “Viral (load; head cut off)” value (DENV-2 RL strain; [18])?
Answer: 1.31E+03

Question: And the “Viral (load), log10” value (DENV-2 RL strain; [19])?
Answer: 3.1169

Question: What about the “Viral (load; head cut off)” value (DENV-2 RL strain; [19]) of the same compound?
Answer: 1.31E+03 and 1.57E+03

Question: And the “Viral (load), log10” value (DENV-2 RL strain; [20])?
Answer: 4.0084 and 3.1169

Question: What about the “Viral (load; head cut off)” value (DENV-2 RL strain; [20]) of the same compound?
Answer: 1.02E+04 and 1.31E+03

Question: And the “Viral (load), log10” value (DENV-2 RL strain; [21])?
Answer: 3.1169 and 4.0709

Question: What about the “Viral (load; head cut off)” value (DENV-2 RL strain; [21]) of the same compound?
Answer: 1.31E+03 and 1.18E+04

Question: What about the “Viral (load), log10” value (DENV-2 RL strain; [22]) of the same compound?
Answer: 3.1169

Question: What about the “Viral (load; head cut off)” value (DENV-2 RL strain; [22]) of the same compound?
Answer: 1.31E+03

Question: What about the IgG seroconversion (DENV-2/16681) of the same compound?
Answer: observed at later timepoints

Question: And the “animals with detectable anti-DENV IgG” value (DENV-2/16681)?
Answer: none of the animals

Question: And the “Weight change (%)” value ([1]; Day 1, individual animals)?
Answer: -0.3571% and -0.3226%

Question: And the “Weight change (%)” value ([1]; Day 3, individual animals)?
Answer: -0.3571%

Question: And the “Weight change (%)” value ([1]; Day 5, individual animals)?
Answer: 0.3226%

Question: What about the “Weight change (%)” value ([1]; Day 8, individual animals) of the same compound?
Answer: 1.143%

Question: What about the “Weight change (%)” value ([1]; Day 9, individual animals) of the same compound?
Answer: -1.29%

Question: And the “Weight change (%)” value ([1]; Day 10, individual animals)?
Answer: 0.3226%

Question: What about the “Weight change (%)” value ([1]; Day 29, individual animals) of the same compound?
Answer: 1.711%

Question: And the “Weight change (%)” value ([1]; Day -2, individual animals)?
Answer: -0.3571% and 0.3226%

Question: And the Tmax ([2]; 0.01 mg/kg)?
Answer: 24 h

Question: And the Cmax ([2]; 0.18 mg/kg)?
Answer: 25.3 ± 6.7 ng/mL

Question: What about the Tmax ([2]; 3 mg/kg) of the same compound?
Answer: up to 24 h

Reference: article PMC10033419, “Blocking NS3–NS4B interaction inhibits dengue virus in non-human primates” (Nature, 2023)
